Measurements taken from patent US10316034B2, “Pharmaceutical salt forms of an inhibitor of semicarbazide-sensitive amine oxidase (SSAO)” (BENEVOLENTAI CAMBRIDGE LIMITED, priority 2015, dated 2019).
Entries after “also recorded” stand apart in the source; their conditions may differ. Like-named read-outs stand apart in the source and are kept apart here. Values belong to the compound of their own block, whether it stands above or below them.

Columns and labels:
Format in all cases: physicochemical
[1] = Hygroscopicity on storage at controlled temperature and relative humidity
Description: The four crystalline salts were tested in order to determine their ease of handling, hygroscopicity, and thermal stability. The hydrochloride and phosphate salts have the advantage of improved handling properties over the free base glass/gum by virtue of their crystallinity. […] Both salts deliquesced on overnight storage at 40° C. in an environment having 75% relative humidity.
The mesylate and sulphate salts have the advantage of improved handling properties over the free base gum by virtue of their crystallinity. […] The mesylate salt deliquesced following storage for 3 days at 40° C. in an environment having 75% relative humidity. The sulphate salt was unchanged after storage for 7 days at 40° C. in an environment having 75% relative humidity.

[2] = Hygroscopicity during long term storage, assessed by Karl Fisher (KF) titration; details: GMP-type packaging with desiccant
Description: The water content of each sample was measured on a Mettler Toledo DL39 Coulometer using Hydranal Coulomat AG reagent and an argon purge. Weighed solid samples were introduced into the vessel on a platinum TGA pan which was connected to a subaseal to avoid water ingress. Approx 10 mg of sample was used per titration and duplicate determinations were made.
(§1) (3S)-Tetrahydrofuran-3-yl (4S)-4-isopropyl-1,4,6,7-tetrahydro-5H-imidazo[4,5-c]-pyridine-5-carboxylate mesylate was also assessed for stability and hygroscopicity when dispensed in 3 g aliquots in double LDPE liners, sealed with cable tie and placed, with a desiccant pouch into a foil bag, which was subsequently heat-sealed. The foil bag was then placed into an HDPE keg fitted with an HDPE lid. These conditions mirror typical GMP level storage conditions. Stability was assessed by HPLC and hygroscopicity was assessed by Karl Fisher (KF) titration.

[3] = Stability during long term storage, assessed by HPLC; details: GMP-type packaging with desiccant
Description: Purity analysis was performed on an Agilent HP1100 series system equipped with a diode array detector and using ChemStation software vB.02.01-SR1 using the method detailed below.
as §1

[4] = overnight storage at 40° C., 75% relative humidity
[5] = after 6 months at 40° C./75% RH

- Hygroscopicity (in words) [1]: hygroscopic
Compound: CC(C)[C@H]1c2[nH]cnc2CCN1C(=O)O[C@H]1CCOC1 [Free base, (3S)-Tetrahydrofuran-3-yl (4S)-4-isopropyl-1,4,6,7-tetrahydro-5H-imidazo[4,5-c]pyridine-5-carboxylate]

Compound: CC(C)[C@H]1c2nc[nH]c2CCN1C(=O)O[C@H]1CCOC1.Cl [Hydrochloride salt, (3S)-Tetrahydrofuran-3-yl (4S)-4-isopropyl-1,4,6,7-tetrahydro-5H-imidazo[4,5-c]-pyridine-5-carboxylate hydrochloride]
- Hygroscopicity (in words) ([1]; hydrochloride): somewhat hygroscopic; also recorded: highly hygroscopic
- Hygroscopicity [1, 4]: deliquesced

Compound: CC(C)[C@H]1c2nc[nH]c2CCN1C(=O)O[C@H]1CCOC1.CS(=O)(=O)O [Mesylate salt, (3S)-Tetrahydrofuran-3-yl (4S)-4-isopropyl-1,4,6,7-tetrahydro-5H-imidazo[4,5-c]-pyridine-5-carboxylate mesylate]
- Hygroscopicity ([1]; 40° C./75% RH after 3 days, listed as mesylate salt, mesylate): deliquesced
- Water uptake (KF) [2, 5]: 0.1%
- Water uptake (KF) ([2]; over 3 years at 25° C./60% RH): no water uptake
- Degradation (HPLC) [3, 5]: 0.1%
- Degradation (HPLC) ([3]; over 3 years at 25° C./60% RH): 0.1%

Compound: CC(C)[C@H]1c2nc[nH]c2CCN1C(=O)O[C@H]1CCOC1.O=P(O)(O)O [Phosphate salt, (3S)-Tetrahydrofuran-3-yl (4S)-4-isopropyl-1,4,6,7-tetrahydro-5H-imidazo[4,5-c]-pyridine-5-carboxylate phosphate]
- Hygroscopicity [1, 4]: deliquesced
- Hygroscopicity (in words) ([1]; phosphate): somewhat hygroscopic; also recorded: highly hygroscopic

Compound: CC(C)[C@H]1c2nc[nH]c2CCN1C(=O)O[C@H]1CCOC1.O.O=S(=O)(O)O [Sulfate salt (.1.5H2O), (3S)-Tetrahydrofuran-3-yl (4S)-4-isopropyl-1,4,6,7-tetrahydro-5H-imidazo[4,5-c]-pyridine-5-carboxylate sulphate hydrate]
- Hygroscopicity ([1]; 40° C./75% RH for up to 7 days, listed as sulphate salt, sulphate hydrate): unchanged
- Hygroscopicity ([1]; 40° C./75% RH for up to 7 days, sulphate hydrate): No change at 40° C./
